Data published in PubChem BioAssay AID2060502 (Molecular Pharmacology Branch, DTP, NCI, 2025).

Test system: 885724-159-R-J1-PDC complex spheroid viability
Test: Anticancer human tumor 885724-159-R-J1-PDC patient-derived pancreatic adenocarcinoma cell line growth inhibition [GQUAD]
Conditions: for IC50: curve of first compound; for viability, T/C: stronger effect = lower value
Outline: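 Multi-cell-type spheroids of tumor cells with HUVEC and mesenchymal stem cells, treated with drug combinations. Concentrations descend in half-log steps from near clinical Cmax, or from 10 microM where Cmax is unknown; viability read-out.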

[1] = second compound 0.0316 µM, first compound 0.0316 µM
[2] = second compound 0.0316 µM, first compound 0.1 µM
[3] = second compound 0.0316 µM, first compound 0.316 µM
[4] = second compound 0.0316 µM, first compound 1 µM
[5] = second compound 0.0316 µM, first compound 3.16 µM
[6] = second compound 0.0316 µM, first compound 10 µM
[7] = second compound 0.1 µM, first compound 0.0316 µM
[8] = second compound 0.1 µM, first compound 0.1 µM
[9] = second compound 0.1 µM, first compound 0.316 µM
[10] = second compound 0.1 µM, first compound 1 µM
[11] = second compound 0.1 µM, first compound 3.16 µM
[12] = second compound 0.1 µM, first compound 10 µM
[13] = second compound 0.316 µM, first compound 0.0316 µM
[14] = second compound 0.316 µM, first compound 0.1 µM
[15] = second compound 0.316 µM, first compound 0.316 µM
[16] = second compound 0.316 µM, first compound 1 µM
[17] = second compound 0.316 µM, first compound 3.16 µM
[18] = second compound 0.316 µM, first compound 10 µM
[19] = second compound 1 µM, first compound 0.0316 µM
[20] = second compound 1 µM, first compound 0.1 µM
[21] = second compound 1 µM, first compound 0.316 µM
[22] = second compound 1 µM, first compound 1 µM
[23] = second compound 1 µM, first compound 3.16 µM
[24] = second compound 1 µM, first compound 10 µM
[25] = second compound 3.16 µM, first compound 0.0316 µM
[26] = second compound 3.16 µM, first compound 0.1 µM
[27] = second compound 3.16 µM, first compound 0.316 µM
[28] = second compound 3.16 µM, first compound 1 µM
[29] = second compound 3.16 µM, first compound 3.16 µM
[30] = second compound 3.16 µM, first compound 10 µM
[31] = second compound 10 µM, first compound 0.0316 µM
[32] = second compound 10 µM, first compound 0.1 µM
[33] = second compound 10 µM, first compound 0.316 µM
[34] = second compound 10 µM, first compound 1 µM
[35] = second compound 10 µM, first compound 3.16 µM
[36] = second compound 10 µM, first compound 10 µM
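Note: spheroids exposed to agents for seven days before readout.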
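Throughout, for viability, T/C: percent of vehicle control viability where 100% = DMSO wells.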

Nc1ccn(C2OC(CO)C(O)C2(F)F)c(=O)n1 (stereo not given) + CN(C)c1ccc(Nc2c3ccc(NC(=O)CCN4CCCC4)cc3nc3cc(NC(=O)CCN4CCCC4)ccc23)cc1
IC50 (second compound 0.0316 µM): > 10 µM | IC50 (second compound 0.1 µM): > 10 µM | IC50 (second compound 0.316 µM): > 10 µM | IC50 (second compound 1 µM): > 10 µM | IC50 (second compound 3.16 µM): 1.83 µM | IC50 (second compound 10 µM): > 10 µM | viability, T/C [1]: 79.8% | viability, T/C [2]: 90.2% | viability, T/C [3]: 71% | viability, T/C [4]: 72.9% | viability, T/C [5]: 63.8% | viability, T/C [6]: 66.3% | viability, T/C [7]: 102% | viability, T/C [8]: 89.3% | viability, T/C [9]: 72.8% | viability, T/C [10]: 64.2% | viability, T/C [11]: 68.6% | viability, T/C [12]: 67% | viability, T/C [13]: 89.5% | viability, T/C [14]: 77.8% | viability, T/C [15]: 74.9% | viability, T/C [16]: 56.8% | viability, T/C [17]: 74% | viability, T/C [18]: 59.8% | viability, T/C [19]: 72% | viability, T/C [20]: 60.6% | viability, T/C [21]: 75% | viability, T/C [22]: 51.4% | viability, T/C [23]: 65.2% | viability, T/C [24]: 50.6% | viability, T/C [25]: 76.8% | viability, T/C [26]: 64.1% | viability, T/C [27]: 60.3% | viability, T/C [28]: 47.1% | viability, T/C [29]: 52.5% | viability, T/C [30]: 44.7% | viability, T/C [31]: 72.6% | viability, T/C [32]: 63.9% | viability, T/C [33]: 47.9% | viability, T/C [34]: 61.2% | viability, T/C [35]: 52.1% | viability, T/C [36]: 52.5%

CC(=O)O[C@H]1C(=O)[C@@]2(C)[C@H]([C@H](OC(=O)c3ccccc3)[C@]3(O)C[C@H](OC(=O)[C@H](O)[C@@H](NC(=O)c4ccccc4)c4ccccc4)C(C)=C1C3(C)C)[C@]1(OC(C)=O)CO[C@@H]1C[C@@H]2O + CN(C)c1ccc(Nc2c3ccc(NC(=O)CCN4CCCC4)cc3nc3cc(NC(=O)CCN4CCCC4)ccc23)cc1
IC50 (second compound 0.0316 µM): > 10 µM | IC50 (second compound 0.1 µM): > 10 µM | IC50 (second compound 0.316 µM): > 10 µM | IC50 (second compound 1 µM): > 10 µM | IC50 (second compound 3.16 µM): > 10 µM | IC50 (second compound 10 µM): > 10 µM | viability, T/C [1]: 92.9% | viability, T/C [2]: 82.8% | viability, T/C [3]: 81.8% | viability, T/C [4]: 85.3% | viability, T/C [5]: 88% | viability, T/C [6]: 98.7% | viability, T/C [7]: 94% | viability, T/C [8]: 92.7% | viability, T/C [9]: 82.3% | viability, T/C [10]: 89.8% | viability, T/C [11]: 83.9% | viability, T/C [12]: 96.8% | viability, T/C [13]: 81.7% | viability, T/C [14]: 82.4% | viability, T/C [15]: 83.8% | viability, T/C [16]: 76.7% | viability, T/C [17]: 85.5% | viability, T/C [18]: 81.1% | viability, T/C [19]: 77.4% | viability, T/C [20]: 64.3% | viability, T/C [21]: 78.6% | viability, T/C [22]: 68% | viability, T/C [23]: 84.4% | viability, T/C [24]: 82.5% | viability, T/C [25]: 77.9% | viability, T/C [26]: 56.1% | viability, T/C [27]: 63.6% | viability, T/C [28]: 66.2% | viability, T/C [29]: 66.6% | viability, T/C [30]: 72.1% | viability, T/C [31]: 66.4% | viability, T/C [32]: 69.6% | viability, T/C [33]: 65.4% | viability, T/C [34]: 67.4% | viability, T/C [35]: 69.6% | viability, T/C [36]: 67.7%

COc1cccc2c1C(=O)c1c(O)c3c(c(O)c1C2=O)CC(O)(C(=O)CO)CC3OC1CC(N)C(O)C(C)O1 (stereo not given) + Cc1[nH]c2ccc(F)cc2c1-c1nc2c3cccnc3c3ncccc3c2[nH]1
IC50 (second compound 0.0316 µM): 1.97 µM | IC50 (second compound 0.1 µM): 2.29 µM | IC50 (second compound 0.316 µM): 2.49 µM | IC50 (second compound 1 µM): 2.53 µM | IC50 (second compound 3.16 µM): 0.0374 µM | IC50 (second compound 10 µM): 2 µM | viability, T/C [1]: 104% | viability, T/C [2]: 98.8% | viability, T/C [3]: 92% | viability, T/C [4]: 71.8% | viability, T/C [5]: 34.8% | viability, T/C [6]: 5.27% | viability, T/C [7]: 119% | viability, T/C [8]: 99.5% | viability, T/C [9]: 89.2% | viability, T/C [10]: 74.7% | viability, T/C [11]: 41% | viability, T/C [12]: 2.4% | viability, T/C [13]: 91% | viability, T/C [14]: 96.2% | viability, T/C [15]: 86.6% | viability, T/C [16]: 64% | viability, T/C [17]: 47.8% | viability, T/C [18]: 2.12% | viability, T/C [19]: 78.2% | viability, T/C [20]: 69.3% | viability, T/C [21]: 71.5% | viability, T/C [22]: 61.2% | viability, T/C [23]: 49% | viability, T/C [24]: 1.09% | viability, T/C [25]: 52.8% | viability, T/C [26]: 43.5% | viability, T/C [27]: 29.2% | viability, T/C [28]: 26.4% | viability, T/C [29]: 22.5% | viability, T/C [30]: 0.94% | viability, T/C [31]: 73.3% | viability, T/C [32]: 64.9% | viability, T/C [33]: 58.6% | viability, T/C [34]: 69.5% | viability, T/C [35]: 39% | viability, T/C [36]: 1.06%

O=c1[nH]cc(F)c(=O)[nH]1 + CN(C)c1ccc(Nc2c3ccc(NC(=O)CCN4CCCC4)cc3nc3cc(NC(=O)CCN4CCCC4)ccc23)cc1
IC50 (second compound 0.0316 µM): > 10 µM | IC50 (second compound 0.1 µM): > 10 µM | IC50 (second compound 0.316 µM): > 10 µM | IC50 (second compound 1 µM): > 10 µM | IC50 (second compound 3.16 µM): > 10 µM | IC50 (second compound 10 µM): > 10 µM | viability, T/C [1]: 105% | viability, T/C [2]: 103% | viability, T/C [3]: 98.7% | viability, T/C [4]: 100% | viability, T/C [5]: 78% | viability, T/C [6]: 85.8% | viability, T/C [7]: 90.8% | viability, T/C [8]: 103% | viability, T/C [9]: 101% | viability, T/C [10]: 95.8% | viability, T/C [11]: 86.4% | viability, T/C [12]: 97.2% | viability, T/C [13]: 89% | viability, T/C [14]: 88.1% | viability, T/C [15]: 87.7% | viability, T/C [16]: 79.7% | viability, T/C [17]: 86.5% | viability, T/C [18]: 78.5% | viability, T/C [19]: 91.7% | viability, T/C [20]: 69.9% | viability, T/C [21]: 80.5% | viability, T/C [22]: 73.3% | viability, T/C [23]: 76.3% | viability, T/C [24]: 83.2% | viability, T/C [25]: 82.7% | viability, T/C [26]: 83.5% | viability, T/C [27]: 87.8% | viability, T/C [28]: 80.6% | viability, T/C [29]: 71.4% | viability, T/C [30]: 75.5% | viability, T/C [31]: 76% | viability, T/C [32]: 80% | viability, T/C [33]: 80.6% | viability, T/C [34]: 79% | viability, T/C [35]: 87.8% | viability, T/C [36]: 75%

COc1ncnc(C2CC2)c1-c1ncc2cnn(Cc3ccc(-c4nc(C(F)(F)F)cn4C(C)C)cc3)c2n1 + Cc1cnc(CNC(=O)c2c(=O)c3ccc(N4CCCN(C)CC4)nc3n3c2sc2ccccc23)cn1
IC50 (second compound 0.0316 µM): > 10 µM | IC50 (second compound 0.1 µM): > 10 µM | IC50 (second compound 0.316 µM): > 10 µM | IC50 (second compound 1 µM): > 10 µM | IC50 (second compound 3.16 µM): > 10 µM | IC50 (second compound 10 µM): > 10 µM | viability, T/C [1]: 113% | viability, T/C [2]: 106% | viability, T/C [3]: 103% | viability, T/C [4]: 114% | viability, T/C [5]: 115% | viability, T/C [6]: 118% | viability, T/C [7]: 117% | viability, T/C [8]: 114% | viability, T/C [9]: 111% | viability, T/C [10]: 103% | viability, T/C [11]: 112% | viability, T/C [12]: 109% | viability, T/C [13]: 97.5% | viability, T/C [14]: 97.4% | viability, T/C [15]: 92.4% | viability, T/C [16]: 98.5% | viability, T/C [17]: 110% | viability, T/C [18]: 106% | viability, T/C [19]: 95.1% | viability, T/C [20]: 90.8% | viability, T/C [21]: 93.6% | viability, T/C [22]: 87.5% | viability, T/C [23]: 99.3% | viability, T/C [24]: 87.3% | viability, T/C [25]: 76.4% | viability, T/C [26]: 73.6% | viability, T/C [27]: 73.2% | viability, T/C [28]: 72.7% | viability, T/C [29]: 82.5% | viability, T/C [30]: 79.5% | viability, T/C [31]: 69.5% | viability, T/C [32]: 69.5% | viability, T/C [33]: 61.8% | viability, T/C [34]: 66.5% | viability, T/C [35]: 76.7% | viability, T/C [36]: 75.8%
